Assay results as given in patent US8551999B2, “Heterocyclic compound and pharmaceutical composition thereof” (Otsuka Pharmaceutical Co., Ltd., priority 2007, dated 2013).

First: COc1ccc(CN2CCN(C(=O)c3cc4cc(Oc5ccc(N(C)C(=O)c6ccc(Cl)c(Cl)c6)cn5)ccc4n3C)CC2)cc1.O=C(O)/C=C\C(=O)O [Example 347, 3,4-Dichloro-N-(6-{2-[4-(4-methoxybenzyl)piperazine-1-carbonyl]-1-methyl-1H-indol-5-yloxy}pyridin-3-yl)-N-methylbenzamide maleate]
Second: COc1ccc(CN2CCN(C(=O)c3cc4cc(Oc5ccc(N(C)C(=O)c6ccc(OC(F)(F)F)cc6)cn5)ccc4n3C)CC2)cc1.O=C(O)/C=C\C(=O)O [Example 18, N-(6-{2-[4-(4-Methoxybenzyl)piperazine-1-carbonyl]-1-methyl-1H-indol-5-yloxy}pyridin-3-yl)-N-methyl-4-trifluoromethoxybenzamide maleate]
The melting point of the first is higher: 171 to 172 °C for the first, 147 to 148 °C for the second.

First: Cc1cc(C(F)(F)F)ccc1C(=O)Nc1ccc(Oc2ccc3cc(C(=O)N4CCN(Cc5ccc(OCC(F)(F)F)cc5)CC4)n(C)c3c2)nc1.Cl
Second: Cl.Cn1c(C(=O)N2CCN(Cc3ccc(OCC(F)(F)F)cc3)CC2)cc2ccc(Oc3ccc(NC(=O)c4ccc(C(F)(F)F)nc4)cn3)cc21
The melting point of the first is higher: 217.4 to 218.3 °C for the first, 195.4 °C for the second.

First: COc1ccc(CN2CCN(C(=O)c3cc4cc(Oc5ccc(CNC(=O)c6ccc(C(F)(F)F)cn6)cn5)ccc4n3C)CC2)cc1.O=C(O)C(=O)O.O=C(O)C(=O)O [Example 21, 5-Trifluoromethylpyridine-2-carboxylic acid (6-{2-[4-(4-methoxy-benzyl)piperazine-1-carbonyl]-1-methyl-1H-indol-5-yloxy}pyridin-3-yl)methylamide dioxalate]
Second: Cn1c(C(=O)N2CCN(Cc3ccccn3)CC2)cc2ccc(Oc3ccc(NC(=O)c4ccc(C(F)(F)F)cc4)cn3)cc21.O=C(O)C(=O)O.O=C(O)C(=O)O [Example 236, N-{6-[1-Methyl-2-(4-pyridin-2-ylmethylpiperazine-1-carbonyl)-1H-indol-6-yloxy]pyridin-3-yl}-4-trifluoromethylbenzamide dioxalate]
The melting point of the first is lower: 152 to 154 °C for the first, 176 to 178 °C for the second.

First: Br.CCCOc1ccc(CN2CCN(C(=O)c3cc4c(C)c(Oc5ccc(N(C)C(=O)c6ccc(C(F)(F)F)cc6)cn5)ccc4n3C)CC2)cc1 [Example 434, N-(6-{1,4-Dimethyl-2-[4-(4-propoxybenzyl)piperazine-1-carbonyl]-1H-indol-5-yloxy}pyridin-3-yl)-N-methyl-4-trifluoromethyl-benzamide hydrobromide]
Second: Br.CCCOc1ccc(CN2CCN(C(=O)c3cc4ccc(Oc5ccc(N(C)C(=O)c6ccc(OC(F)(F)F)cc6)cn5)cc4n3C)CC2)cc1 [Example 471, N-Methyl-N-(6-{1-methyl-2-[4-(4-propoxybenzyl)piperazine-1-carbonyl]-1H-indol-6-yloxy}pyridin-3-yl)-4-trifluoromethoxy-benzamide hydrobromide]
The melting point of the first is lower: 204 to 208 °C for the first, 240 to 242 °C for the second.

First: Cn1c(C(=O)N2CCN(Cc3ccc(OC(CF)CF)cc3)CC2)cc2ccc(Oc3ccc(NS(=O)(=O)C4=CC=C(Cl)C(C)(Cl)C4)cn3)cc21 (stereo not shown) [Example 506, 3,4-Dichloro-N-[6-(2-{4-[4-(2-fluoro-1-fluoromethylethoxy)-benzyl]piperazine-1-carbonyl}-1-methyl-1H-indol-6-yloxy)pyridin-3-yl]-M-methylbenzenesulfonamide]
Second: CC(C)N(c1ccc(Oc2ccc3cc(C(=O)N4CCN(Cc5ccc(OCC(F)(F)F)cc5)CC4)n(C)c3c2)nc1)S(=O)(=O)c1ccc(Cl)c(Cl)c1.Cl
The melting point of the first is lower: 157.7 to 160.2 °C for the first, 232.8 to 235.6 °C for the second.

First: CC(C)c1ccc(CN2CCN(C(=O)c3cc4cc(Oc5ccc(N(C)C(=O)c6ccc(C(F)(F)F)cc6)cn5)ccc4n3C)CC2)cc1.O=C(O)/C=C\C(=O)O [Example 412, N-(6-{2-[4-(4-Isopropylbenzyl)piperazine-1-carbonyl]-1-methyl-1H-indol-5-yloxy}pyridin-3-yl)-N-methyl-4-trifluoromethylbenzamide maleate]
Second: CCOc1ccc(CN2CCN(C(=O)c3cc4cc(Oc5ccc(N(C)C(=O)c6ccc(C(F)(F)F)cc6)cn5)ccc4n3C)CC2)cn1.O=C(O)/C=C\C(=O)O [Example 423, N-(6-{2-[4-(6-Ethoxypyridin-3-ylmethyl)piperazine-1-carbonyl]-1-methyl-1H-indol-5-yloxy}pyridin-3-yl)-N-methyl-4-trifluoromethyl-benzamide maleate]
The melting point of the first is lower: 129 to 131 °C for the first, 149 to 151 °C for the second.

`CCCOc1ccc(CN2CCN(C(=O)c3cc4ccc(Oc5ccc(N(C)C(=O)c6ccc(OC(F)F)cc6)cn5)cc4n3C)CC2)cc1.Cl` and `Br.Cc1ccc(C(=O)N(C)c2ccc(Oc3ccc4cc(C(=O)N5CCN(Cc6ccc(OCC(F)(F)F)cc6)CC5)n(C)c4c3)nc2)cc1` [Example 23, 4,N-Dimethyl-N-[6-(1-methyl-2-{4-[4-(2,2,2-trifluoroethoxy)-benzyl]piperazine-1-carbonyl}-1H-indol-6-yloxy)pyridin-3-yl]-benzamide hydrobromide] cannot be ordered by melting point: 226.9 to 229 °C for the first, 226.1 to 227.3 °C for the second.

First: Cc1c(Oc2ccc(N(C)C(=O)c3ccc(C(F)(F)F)cc3)cn2)ccc2c1cc(C(=O)N1CCN(Cc3ccc4c(c3)OC(F)(F)O4)CC1)n2C [Example 441, N-(6-{2-[4-(2,2-Difluorobenzo[1,3]dioxol-5-ylmethyl)piperazine-1-carbonyl]-1,4-dimethyl-1H-indol-5-yloxy}pyridin-3-yl)-N-methyl-4-trifluoromethylbenzamide]
Second: Br.COc1ccc(CN2CCN(C(=O)c3cc4cc(Oc5ccc(N(C)C(=O)c6ccc(C(F)(F)F)cc6)cn5)ccc4n3C)CC2)cc1OC [Example 345, N-(6-{2-[4-(3,4-Dimethoxybenzyl)piperazine-1-carbonyl]-1-methyl-1H-indol-5-yloxy}pyridin-3-yl)-N-methyl-4-trifluoromethyl-benzamide hydrobromide]
The melting point of the first is lower: 97.9 to 99.5 °C for the first, 175 to 177 °C for the second.

First: CC(C)Oc1ccc(CN2CCN(C(=O)c3cc4ccc(Oc5ccc(NC(=O)c6ccc(C(F)(F)F)cc6F)cn5)cc4n3C)CC2)cc1.Cl
Second: Br.Cn1c(C(=O)N2CCN(Cc3ccc4c(c3)OCO4)CC2)cc2ccc(Oc3ccc(NC(=O)c4ccc(C(F)(F)F)cc4)cn3)cc21 [Example 454, N-{6-[2-(4-Benzo[1,3]dioxol-5-ylmethylpiperazine-1-carbonyl)-1-methyl-1H-indol-6-yloxy]pyridin-3-yl}-4-trifluoromethylbenzamide hydrobromide]
The melting point of the first is higher: 267.6 to 268.2 °C for the first, 264 to 265.6 °C for the second.

Compared with `Br.Cn1c(C(=O)N2CCN(Cc3ccc(OCC(F)(F)F)cc3)CC2)cc2cc(Oc3ccc(NC(=O)c4ccc(C(F)(F)F)cc4)cn3)ccc21` [Example 463, N-[6-(1-Methyl-2-{4-[4-(2,2,2-trifluoroethoxy)benzyl]piperazine-1-carbonyl}-1H-indol-5-yloxy)pyridin-3-yl]-4-trifluoromethyl-benzamide hydrobromide], `Br.Cn1c(C(=O)N2CCN(Cc3ccc(OCC(F)F)cc3)CC2)cc2cc(Oc3ccc(NC(=O)c4ccc(C(F)(F)F)cc4)cn3)ccc21` [Example 462, N-[6-(2-{4-[4-(2,2-Difluoroethoxy)benzyl]piperazine-1-carbonyl}-1-methyl-1H-indol-5-yloxy)pyridin-3-yl]-4-trifluoromethyl-benzamide hydrobromide] is lower in melting point: 236.8 to 237.5 °C for the first, 229.1 to 230.8 °C for the second.

First: Cn1c(C(=O)N2CCN(Cc3ccccn3)CC2)cc2cc(Oc3ncc(NC(=O)c4ccc(C(F)(F)F)cc4)cn3)ccc21 [Example 382, N-{2-[1-Methyl-2-(4-pyridin-2-ylmethylpiperazine-1-carbonyl)-1H-indol-5-yloxy]pyrimidin-5-yl}-4-trifluoromethylbenzamide]
Second: Br.CN(C(=O)c1ccc(C(F)(F)F)cc1)c1ccc(Oc2ccc3c(c2)cc(C(=O)N2CCN(Cc4ccc(F)cc4)CC2)n3C)nc1 [Example 549, N-(6-{2-[4-(4-Fluorobenzyl)piperazine-1-carbonyl]-1-methyl-1H-indol-5-yloxy}pyridin-3-yl)-N-methyl-4-trifluoromethylbenzamide hydrobromide]
The melting point of the first is lower: 181 to 182 °C for the first, 218 to 220 °C for the second.

First: CCOc1ccc(CN2CCN(C(=O)c3cc4cc(Oc5ccc(N(C)C(=O)c6ccc(Cl)c(Cl)c6)cn5)ccc4n3C)CC2)cc1.CS(=O)(=O)O [Example 361, 3,4-Dichloro-N-(6-{2-[4-(4-ethoxybenzyl)piperazine-1-carbonyl]-1-methyl-1H-indol-5-yloxy}pyridin-3-yl)-N-methylbenzamide methanesulfonate]
Second: Br.CCCOc1ccc(CN2CCN(C(=O)c3cc4ccc(Oc5ccc(NC(=O)c6ccc(Cl)c(Cl)c6)cn5)cc4n3C)CC2)cc1 [Example 256, 3,4-Dichloro-N-(6-{1-methyl-2-[4-(4-propoxybenzyl)piperazine-1-carbonyl]-1H-indol-6-yloxy}pyridin-3-yl)benzamide hydrobromide]
The melting point of the first is lower: 168 to 170 °C for the first, 239.2 to 240.4 °C for the second.

Compared with `Br.CCN(C(=O)Nc1ccc(Cl)c(Cl)c1)c1ccc(Oc2ccc3c(c2)cc(C(=O)N2CCN(Cc4ccc5c(c4)OCO5)CC2)n3C)nc1` [Example 583, 1-{6-[2-(4-Benzo[1,3]dioxol-5-ylmethylpiperazine-1-carbonyl)-1-methyl-1H-indol-5-yloxy]pyridin-3-yl}-3-(3,4-dichlorophenyl)-1-ethylurea hydrobromide], `Cn1c(C(=O)N2CCN(Cc3ccc(C#N)cc3)CC2)cc2cc(Oc3ccc(NC(=O)c4ccc(C(F)(F)F)cc4)cn3)ccc21.O=C(O)/C=C\C(=O)O` [Example 552, N-(6-{2-[4-(4-Cyanobenzyl)piperazine-1-carbonyl]-1-methyl-1H-indol-5-yloxy}pyridin-3-yl)-4-trifluoromethylbenzamide maleate] is lower in melting point: 224 to 228 °C for the first, 149 to 152 °C for the second.

`CC(C)Oc1ccc(CN2CCN(C(=O)c3cc4ccc(Oc5ncc(N(C)S(C)(=O)=O)cn5)cc4n3C)CC2)cc1` [Example 45, N-(2-{2-[4-(4-Isopropoxybenzyl)piperazine-1-carbonyl]-1-methyl-1H-indol-6-yloxy}pyrimidin-5-yl)-N-methylmethanesulfonamide] gave a melting point of 134.3 to 135.6 °C.

For `Br.Br.Cc1cc(Oc2ccc3c(c2)cc(C(=O)N2CCN(Cc4ccncc4)CC2)n3C)ncc1NC(=O)c1ccc(C(F)(F)F)cc1` [Example 362, N-{4-Methyl-6-[1-methyl-2-(4-pyridin-4-ylmethylpiperazine-1-carbonyl)-1H-indol-5-yloxy]pyridin-3-yl}-4-trifluoromethyl-benzamide dihydrobromide], the melting point was 228 to 232 °C (dec.).
